Holding throughout (type): in vivo
Settings in all cases: 50 ppm, 100 = 100% disease control, 0 = no control

The subject of assay [1] is Botrytis cinerea. Put plainly: Test E: tomato Botrytis, preventive spray on tomato seedlings. The method, boiled down:
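Compound suspended in 50/50 acetone/water with 250 ppm PEG400 surfactant and sprayed to run-off on tomato seedlings; Botrytis cinerea spores applied the next day. Incubation 48 h at 20° C in saturated atmosphere, then 3 days at 24° C. Visual rating 0–100% disease control relative to controls.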

Assay [2] has as its system Phakopsora pachyrhizi. Put plainly: Test D: Asian soybean rust, preventive spray on soybean seedlings. The method in brief:
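Compounds in acetone/water (50/50) with 250 ppm PEG400, dosed in ppm, sprayed to run-off on soybean seedlings; inoculated with P. pachyrhizi spores next day. Held 24 h at 22 °C in saturated air, then 8 days at 22 °C; visual rating of disease control, 0–100, relative to untreated controls.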

Assay [3] concerns Blumeria graminis f. sp. tritici. Kind of assay: Test C: wheat powdery mildew, preventive spray on wheat seedlings. The method in brief: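 Seedlings were sprayed to run-off with compound suspended (ppm) in 50/50 acetone–water containing 250 ppm PEG400, then spore-dust inoculated the following day. After 8 days at 20° C, disease control was rated visually from 0 to 100 against controls.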

Assay [4] concerns Alternaria solani. Put plainly: Test F: tomato early blight, preventive spray on tomato seedlings. The method, boiled down: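 Tomato seedlings were sprayed to run-off with compound suspended in acetone/water (50/50) with 250 ppm PEG400 and inoculated with Alternaria solani spores the next day. Plants were held 48 h at 27 °C in saturated humidity, then 3 days at 20 °C. Disease control was rated visually from 0 to 100 against untreated controls.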

The test system of assay [5] is Septoria tritici. Put plainly: Test A: wheat leaf blotch, preventive spray on wheat seedlings. The method in brief: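 Wheat seedlings sprayed to run-off with compound suspended in acetone/water with 250 ppm PEG400 surfactant, inoculated next day with Septoria tritici spores. Held 48 h saturated at 24 °C, then 17 days at 20 °C; disease rated 0–100% control relative to controls.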

Assay [6] relates to Puccinia recondita f. sp. tritici. Kind of assay: Test B: wheat leaf rust, preventive spray on wheat seedlings. The method, boiled down: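 Wheat seedlings were sprayed to run-off with compound suspended at ppm concentrations in acetone/water containing 250 ppm PEG400. The next day they were inoculated with Puccinia recondita f. sp. tritici spores, held saturated at 20 °C for 24 h, then kept 7 days at 20 °C. Disease control was rated 0–100% relative to untreated controls.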

The source of these data is patent US20230148599A1, “FUNGICIDAL MIXTURES CONTAINING PYRAZOLE DERIVATIVES” (FMC Corporation, priority 2020, published 2023).

For `COc1cc(F)c(-c2c(C)nn(C)c2Nc2c(F)cccc2[N+](=O)[O-])c(F)c1` [compound 70], in assay [1], the “Test E disease control rating” value turned out to be 99%. Also, the “Test D disease control rating” value in assay [2] came to 84%. The “Test C disease control rating” value in assay [3] stood at 99%. In assay [4], the “Test F disease control rating” value was determined as 99%. Moreover, the “Test A disease control rating” value in assay [5] is given as 100%. Moreover, the “Test B disease control rating” value in assay [6] was 100%.

For the compound `CCn1nc(C)c(-c2ccc(F)cc2Cl)c1Nc1c(F)cccc1[N+](=O)[O-]` [compound 71], the “Test E disease control rating” value in assay [1] is listed as 99%. In addition, the “Test D disease control rating” value in assay [2] is 82%. Besides, the “Test C disease control rating” value in assay [3] turned out to be 99%. In assay [4], the “Test F disease control rating” value came to 98%. The “Test A disease control rating” value in assay [5] is listed as 100%. The “Test B disease control rating” value in assay [6] is listed as 100%.

As for `COc1ccc(-c2c(C)nn(C)c2Nc2ccc(Cl)cc2[N+](=O)[O-])c(Cl)c1` [compound 74], the “Test E disease control rating” value in assay [1] was 99%. The “Test D disease control rating” value in assay [2] is 74%. The “Test C disease control rating” value in assay [3] came to 81%. Further, in assay [4], the “Test F disease control rating” value was 85%. The “Test A disease control rating” value in assay [5] amounted to 99%. In assay [6], the “Test B disease control rating” value is given as 86%.

On to `Cc1nn(C)c(Nc2c(F)cc(F)cc2[N+](=O)[O-])c1-c1c(F)cccc1F` [compound 75], for which, in assay [1], the “Test E disease control rating” value came to 57%. In assay [2], the “Test D disease control rating” value worked out at 0%. Also, the “Test C disease control rating” value in assay [3] was 90%. For the same compound, the “Test F disease control rating” value in assay [4] worked out at 98%. The “Test A disease control rating” value in assay [5] is 100%. The “Test B disease control rating” value in assay [6] is given as 99%.

As to `Cc1nn(C)c(Nc2c(Cl)cc(F)cc2[N+](=O)[O-])c1-c1c(F)cccc1F` [compound 76], in assay [1], the “Test E disease control rating” value was 87%. In addition, the “Test D disease control rating” value in assay [2] is 25%. The “Test C disease control rating” value in assay [3] was determined as 95%. The “Test F disease control rating” value in assay [4] worked out at 0%. The “Test A disease control rating” value in assay [5] was 100%. Further, the “Test B disease control rating” value in assay [6] worked out at 99%.

Regarding `Cc1nn(C)c(Nc2c(Cl)cccc2[N+](=O)[O-])c1-c1c(F)cccc1F` [compound 77], the “Test E disease control rating” value in assay [1] is 72%. Also, in assay [2], the “Test D disease control rating” value was found to be 73%. Besides, the “Test C disease control rating” value in assay [3] is 95%. Moreover, the “Test F disease control rating” value in assay [4] is on record as 9%. For the same compound, the “Test A disease control rating” value in assay [5] came to 100%. The “Test B disease control rating” value in assay [6] is given as 100%.

In the case of `Cc1nn(C)c(Nc2ccc(Cl)cc2[N+](=O)[O-])c1-c1ccc(F)cc1F` [compound 78], in assay [1], the “Test E disease control rating” value turned out to be 68%. Besides, the “Test D disease control rating” value in assay [2] was found to be 0%. For the same compound, the “Test C disease control rating” value in assay [3] is 95%. In addition, the “Test F disease control rating” value in assay [4] was 0%. In addition, the “Test A disease control rating” value in assay [5] was found to be 100%. The “Test B disease control rating” value in assay [6] is on record as 89%.

With `Cc1nn(C)c(Nc2c(Cl)cccc2[N+](=O)[O-])c1-c1ccc(F)cc1F` [compound 79], the “Test E disease control rating” value in assay [1] turned out to be 98%. In assay [2], the “Test D disease control rating” value is recorded as 44%. Further, the “Test C disease control rating” value in assay [3] was found to be 91%. In addition, the “Test F disease control rating” value in assay [4] amounted to 0%. Also, the “Test A disease control rating” value in assay [5] was found to be 100%. The “Test B disease control rating” value in assay [6] is 100%.

`COc1cc(Cl)c(Nc2c(-c3ccc(F)cc3Cl)c(C)nn2C)c([N+](=O)[O-])c1` [compound 80]: the “Test E disease control rating” value in assay [1] came out at 95%. Further, the “Test D disease control rating” value in assay [2] came to 50%. Besides, in assay [3], the “Test C disease control rating” value was 97%. In assay [4], the “Test F disease control rating” value is on record as 98%. In addition, the “Test A disease control rating” value in assay [5] is 100%. Also, the “Test B disease control rating” value in assay [6] worked out at 100%.

With `COc1ccc(-c2c(C)nn(C)c2Nc2c(F)cc(Cl)cc2[N+](=O)[O-])c(Cl)c1` [compound 81], the “Test E disease control rating” value in assay [1] was determined as 95%. In assay [2], the “Test D disease control rating” value was 0%. In assay [3], the “Test C disease control rating” value is 89%. Moreover, the “Test F disease control rating” value in assay [4] came to 99%. For the same compound, the “Test A disease control rating” value in assay [5] was determined as 100%. Moreover, the “Test B disease control rating” value in assay [6] worked out at 99%.

For the compound `COc1cc(F)c(-c2c(C)nn(C)c2Nc2c(Cl)cc(Cl)cc2[N+](=O)[O-])c(F)c1` [compound 82], the “Test E disease control rating” value in assay [1] was 96%. For the same compound, the “Test D disease control rating” value in assay [2] amounted to 59%. For the same compound, the “Test C disease control rating” value in assay [3] is recorded as 58%. Further, the “Test F disease control rating” value in assay [4] is listed as 97%. Also, in assay [5], the “Test A disease control rating” value worked out at 100%. Besides, the “Test B disease control rating” value in assay [6] came to 100%.

As for `COc1cc(F)c(-c2c(C)nn(C)c2Nc2ccc(F)cc2[N+](=O)[O-])c(F)c1` [compound 83], the “Test E disease control rating” value in assay [1] amounted to 98%. In addition, in assay [2], the “Test D disease control rating” value was 0%. Further, the “Test C disease control rating” value in assay [3] stood at 99%. In addition, the “Test F disease control rating” value in assay [4] came to 99%. Further, the “Test A disease control rating” value in assay [5] is 99%. Further, the “Test B disease control rating” value in assay [6] was 91%.

Regarding `COc1cc(F)c(-c2c(C)nn(C)c2Nc2c(F)cc(F)cc2[N+](=O)[O-])c(F)c1` [compound 84], the “Test E disease control rating” value in assay [1] was 90%. Moreover, the “Test D disease control rating” value in assay [2] was 48%. In addition, the “Test C disease control rating” value in assay [3] is 99%. For the same compound, the “Test F disease control rating” value in assay [4] came to 99%. In assay [5], the “Test A disease control rating” value was 100%. In addition, the “Test B disease control rating” value in assay [6] was determined as 100%.

With `COc1cc(F)c(Nc2c(-c3ccc(F)cc3Cl)c(C)nn2C)c([N+](=O)[O-])c1` [compound 85], the “Test E disease control rating” value in assay [1] is 94%. In assay [2], the “Test D disease control rating” value was found to be 96%. In addition, the “Test C disease control rating” value in assay [3] was determined as 97%. The “Test F disease control rating” value in assay [4] came to 98%. Besides, the “Test A disease control rating” value in assay [5] worked out at 100%. In addition, the “Test B disease control rating” value in assay [6] was 100%.

On to `COc1cc(F)c(-c2c(C)nn(C)c2Nc2c(F)cc(Cl)cc2[N+](=O)[O-])c(F)c1` [compound 86], for which the “Test E disease control rating” value in assay [1] worked out at 96%. Further, the “Test D disease control rating” value in assay [2] amounted to 77%. In addition, the “Test C disease control rating” value in assay [3] came out at 98%. For the same compound, the “Test F disease control rating” value in assay [4] was 99%. The “Test A disease control rating” value in assay [5] stood at 100%. Besides, the “Test B disease control rating” value in assay [6] is reported as 100%.

Regarding `Cc1ccc(Nc2c(-c3ccc(F)cc3Br)c(C)nn2C)c([N+](=O)[O-])c1` [compound 90], in assay [1], the “Test E disease control rating” value is listed as 99%. The “Test D disease control rating” value in assay [2] amounted to 0%. In addition, in assay [3], the “Test C disease control rating” value came out at 87%. Also, the “Test F disease control rating” value in assay [4] turned out to be 9%. In addition, the “Test A disease control rating” value in assay [5] is reported as 100%. Besides, the “Test B disease control rating” value in assay [6] stood at 95%.

Regarding `Cc1nn(C)c(Nc2ccc(Br)cc2[N+](=O)[O-])c1-c1ccc(F)cc1Cl` [compound 91], in assay [1], the “Test E disease control rating” value is on record as 99%. For the same compound, in assay [2], the “Test D disease control rating” value came to 0%. Moreover, the “Test C disease control rating” value in assay [3] came out at 84%. Moreover, in assay [4], the “Test F disease control rating” value is on record as 26%. Further, the “Test A disease control rating” value in assay [5] stood at 99%. The “Test B disease control rating” value in assay [6] is given as 88%.

For `Cc1nn(C)c(Nc2ccc(Cl)cc2[N+](=O)[O-])c1-c1ccc(F)cc1Cl` [compound 92], the “Test E disease control rating” value in assay [1] came out at 100%. The “Test D disease control rating” value in assay [2] was determined as 0%. Besides, the “Test C disease control rating” value in assay [3] came to 89%. For the same compound, the “Test F disease control rating” value in assay [4] is 79%. Besides, the “Test A disease control rating” value in assay [5] came to 100%. Besides, the “Test B disease control rating” value in assay [6] turned out to be 96%.
